We go through 10 molecules from patent US20250073248A1, “BIORESORBABLE CATIONIC STEROIDAL ANTIMICROBIAL COMPOUNDS WITH GLYCERIDE LINKAGES” (BRIGHAM YOUNG UNIVERSITY, priority 2023, published 2025).

Values after ≈ are worked out from the molar mass of the structure shown. A value given as a limit tells only on which side of the number the result lay.

The subject of one test is MRSA ATCC BAA-42. Description: Membrane depolarization, DiSC2(5) fluorescence. In kind it is cell-based, Staphylococcus aureus. The conditions noted are these: 8 μg/mL, FIG. 5. The method, then:
Reference is made to FIGS. 4 and 5. […] CSA-131 or CSA-4110 was added at 140 second to achieve 8 μg/mL after addition.
Antimicrobial peptides (AMPs) and CSA compounds are known to permeabilize bacterial membranes. For bacterial survival, the cytoplasmic membrane must be polarized. Depolarization of this membrane prevents ATP synthesis and leads to cell death. The dye 3,3′-diethylthiadicarbocyanine iodide (DiSC2(5)) can be used to measure cell membrane polarization. Fluorescence of this dye is decreased when it inserts into polarized membranes, and membrane depolarization results in substantial increases in fluorescence (see FIG. 5).
MRSA was used to explore the impact of CSA-4110 on membrane depolarization and compared results to those with ceragenin CSA-131. […] Fluorescence was monitored over time after addition of CSA-4110 or CSA-131. which incorporated into cellular membranes.

Test [1] relates to strains of Staphylococcus aureus, Pseudomonas aeruginosa, and Candida albicans. As to conditions: previous work; strains of S. aureus, P. aeruginosa, C. albicans; cited from earlier work.
For test [2], the system named is Pseudomonas aeruginosa 01 (PA01). Description: MIC and MBC, broth microdilution, PA01 (Table 1). In kind it is cell-based. The conditions noted are these: for MBC / MIC: Pseudomonas aeruginosa; for MBC / MBC or MFC: value in parentheses; for MIC: first value of cell. The source says:
(§1) To investigate the antimicrobial impact of structural variance in the novel bioresorbable CSA compounds disclosed herein,Pseudomonas aeruginosa 01 (PA01), methicillin-resistant Staphylococcus aureus (MRSA), and Candida albicans (CA) were selected, representing Gram-negative bacterial, Gram-positive bacterial, and fungal pathogens of high or critical priority on the world health organization's priority lists for bacteria and fungi. Earlier applications of CSA compounds have focused on preventing medical device infections, and all three strains are commonly found in colonized implants, making efficacy against these pathogens an important indicator of future applicability.
(§2) All compounds were screened against these pathogens to determine their minimum inhibitory concentration (MIC), minimum bactericidal concentration (MBC), and minimum fungicidal concentration (MFC) using a broth microdilution method. […] Of these three, only CSA-4110 was similarly active against PA01and CA, inhibiting growth at 8 μg/mL.
(Dilution methods test growth across graded concentrations, often in twofold steps.)

In test [3] the test system is methicillin-resistant Staphylococcus aureus (MRSA). Briefly: MIC and MBC, broth microdilution, MRSA (Table 1). The conditions noted are these: for MBC / MIC: Staphylococcus aureus; for MIC: first value of cell. It counts as cell-based.
From the text: as §1, §2

The next test relates to Candida albicans (CA). Description: MIC and MFC, broth microdilution, CA (Table 1). The conditions noted are these: for MBC / MIC: Candida albicans; for MBC / MBC or MFC: MFC, value in parentheses; for MIC: first value of cell. In kind it is cell-based.
From the text: as §1, §2

In another test the test system is Candida albicans 90028. Description: Example 1 MIC/MFC (FIG. 1, FIG. 2), C. albicans. In kind it is cell-based. The protocol:
(§3) The antimicrobial activities of CSA-4108, CSA-4110, CSA-4112, and CSA-4114 were determined relative to methicillin-resistant Staphylococcus aureus (MRSA), Pseudomonas aeruginosa (Pa), and Candida albicans 90028. The minimum inhibitory concentration (MIC) for CSA-4108, CSA-4110, CSA-4112, and CSA-4114 relative to the foregoing microbes is graphically reported in FIG. 1. The minimum bactericidal concentration (MBC) and minimum fungicidal concentration […] for CSA-4108, CSA-4110, CSA-4112, and CSA-4114 relative to the foregoing microbes are graphically reported in FIG. 2.

The next test relates to PA01, MRSA and CA. Description: MIC, MBC and MFC screen, all three pathogens (summary statements). It counts as cell-based. As to conditions: compared with CSA-4110.
From the text: as §1, §2

The subject of test [4] is methicillin-resistant Staphylococcus aureus (MRSA). Briefly: Example 1 MIC/MBC (FIG. 1, FIG. 2), MRSA. In kind it is cell-based. The protocol:
as §3

Setting [5] is: MBC, value in parentheses, kills at least 99.9%.

Take `CCCCCCCCCCCCNCCC[C@@H](C)[C@H]1CC[C@H]2[C@@H]3[C@H](OCCCN)C[C@@H]4C[C@H](OCCCN)CC[C@]4(C)[C@H]3C[C@H](OCCCN)[C@]12C.Cl.Cl.Cl.Cl` [CSA-131]: the “speed of depolarization of MRSA cells, comparison” value in the test on MRSA ATCC BAA-42 is recorded as “more rapidly than CSA-4110”. Also, the “fluorescence of DiSC2(5) after addition (membrane depolarization)” value with MRSA ATCC BAA-42 (added at 140 seconds) is “rapid increase of fluorescence”. In addition, the MICs in test [1] was 0.5 to 2 µg/mL.
Turning to `CCCCCCCC(=O)OCC(O)COC(=O)CC[C@@H](C)[C@H]1CC[C@H]2[C@@H]3[C@H](OC(=O)CCN)C[C@@H]4C[C@H](OC(=O)CCN)CC[C@]4(C)[C@H]3C[C@H](OC(=O)CCN)[C@]12C` (stereo partly shown) [CSA-4108], the results for the MBC (in test [2]; in test [3] (setting [5]); in the test on Candida albicans (CA)) were more than 100 µg/mL, 32 µg/mL (≈ 38.9 µM) and 16 µg/mL (≈ 19.5 µM), respectively. Moreover, the minimal inhibitory concentration (MIC) in test [2] came to 64 µg/mL (≈ 77.8 µM); in test [3], 16 µg/mL (≈ 19.5 µM); with Candida albicans (CA), 16 µg/mL (≈ 19.5 µM). The “MBC or MFC” value in the test on Candida albicans (CA) was 16 (16) μg/mL. Also, the “MIC (FIG. 1), ranking in words” value against Candida albicans 90028 is “same MIC”.
Regarding `CCCCCCCCCC(=O)OC[C@@H](O)COC(=O)CC[C@@H](C)[C@H]1CC[C@H]2[C@@H]3[C@H](OC(=O)CCN)C[C@@H]4C[C@H](OC(=O)CCN)CC[C@]4(C)[C@H]3C[C@H](OC(=O)CCN)[C@]12C` [CSA-4110R], the “antimicrobial activity in MIC and MBC/MFC assays, in words” value in the test on PA01, MRSA and CA was “performed comparably to CSA-4110”. Further, the MBC in test [2] was 8 µg/mL (≈ 9.41 µM); in test [3] (setting [5]), 4 µg/mL (≈ 4.71 µM); with Candida albicans (CA), 8 µg/mL (≈ 9.41 µM). The MIC in test [2] worked out at 4 µg/mL (≈ 4.71 µM); in test [3] it was 4 µg/mL (≈ 4.71 µM); with Candida albicans (CA), 8 µg/mL (≈ 9.41 µM).
Take `CCCCCCCCCC(=O)OC[C@H](O)COC(=O)CC[C@@H](C)[C@H]1CC[C@H]2[C@@H]3[C@H](OC(=O)CCN)C[C@@H]4C[C@H](OC(=O)CCN)CC[C@]4(C)[C@H]3C[C@H](OC(=O)CCN)[C@]12C` [CSA-4110S]: in the test with PA01, MRSA and CA, the “antimicrobial activity in MIC and MBC/MFC assays, in words” value was “performed comparably to CSA-4110”. Moreover, the MBC in test [2] was found to be 16 µg/mL (≈ 18.8 µM); in test [3] (setting [5]) it was 4 µg/mL (≈ 4.71 µM); with Candida albicans (CA), 8 µg/mL (≈ 9.41 µM). Also, the MIC in test [2] was 8 µg/mL (≈ 9.41 µM); in test [3], 4 µg/mL (≈ 4.71 µM); against Candida albicans (CA), 8 µg/mL (≈ 9.41 µM).
With `CCCCCCCCCCCC(=O)OCC(O)COC(=O)CC[C@@H](C)[C@H]1CC[C@H]2[C@@H]3[C@H](OC(=O)CCN)C[C@@H]4C[C@H](OC(=O)CCN)CC[C@]4(C)[C@H]3C[C@H](OC(=O)CCN)[C@]12C` (stereo partly shown) [CSA-4112], the MBC was determined as 64 µg/mL (≈ 72.9 µM) in test [2], 32 µg/mL (≈ 36.4 µM) in test [3] (setting [5]) and 16 µg/mL (≈ 18.2 µM) with Candida albicans (CA). Also, the MIC was found to be 64 µg/mL (≈ 72.9 µM) in test [2], 16 µg/mL (≈ 18.2 µM) in test [3] and 16 µg/mL (≈ 18.2 µM) against Candida albicans (CA). Also, in the test on Candida albicans (CA), the “MBC or MFC” value is recorded as 16 (16) μg/mL. Also, the “MIC (FIG. 1), ranking in words” value against Candida albicans 90028 was “same MIC”.
For the molecule `CCCCCCCCCCCCCC(=O)OCC(O)COC(=O)CC[C@@H](C)[C@H]1CC[C@H]2[C@@H]3[C@H](OC(=O)CCN)C[C@@H]4C[C@H](OC(=O)CCN)CC[C@]4(C)[C@H]3C[C@H](OC(=O)CCN)[C@]12C` (stereo partly shown) [CSA-4114], the results for the MBC (in test [2]; in test [3] (setting [5]); in the test on Candida albicans (CA)) were more than 100 µg/mL, more than 100 µg/mL and 64 µg/mL (≈ 70.6 µM), respectively. For the same molecule, the minimal inhibitory concentration (MIC) in test [2] is more than 100 µg/mL; in test [3], 64 µg/mL (≈ 70.6 µM); in the test with Candida albicans (CA), 64 µg/mL (≈ 70.6 µM). Besides, the “MIC (FIG. 1), ranking in words” value (in test [4]; with Candida albicans 90028) was “highest MIC” in each case. For the same molecule, the “MFC (FIG. 2), ranking in words” value against Candida albicans 90028 is “highest MFC”.
As to `CCCC(=O)OCC(COC(=O)CC[C@@H](C)[C@H]1CC[C@H]2[C@@H]3[C@H](OC(=O)CCN)C[C@@H]4C[C@H](OC(=O)CCN)CC[C@]4(C)[C@H]3C[C@H](OC(=O)CCN)[C@]12C)OC(=O)CCC` (stereo partly shown) [CSA-4204], the “MBC or MFC” value in test [2] was more than 100 µg/mL. The MBC was determined as 100 µg/mL (≈ 120 µM) in test [2], 8 µg/mL (≈ 9.57 µM) in test [3] (setting [5]) and 32 µg/mL (≈ 38.3 µM) in the test with Candida albicans (CA). In addition, the figures for the MIC (in test [2]; in test [3]; in the test with Candida albicans (CA)) were 64 µg/mL (≈ 76.5 µM), not above 8 µg/mL and 16 µg/mL (≈ 19.1 µM), respectively.
Turning to `CCCCCC(=O)OCC(COC(=O)CC[C@@H](C)[C@H]1CC[C@H]2[C@@H]3[C@H](OC(=O)CCN)C[C@@H]4C[C@H](OC(=O)CCN)CC[C@]4(C)[C@H]3C[C@H](OC(=O)CCN)[C@]12C)OC(=O)CCCCC` (stereo partly shown) [CSA-4206], the “MBC or MFC” value is 32 (32) μg/mL in test [2], 8 (8) μg/mL in test [3] (setting [5]) and 8 (8) μg/mL with Candida albicans (CA). Besides, the MBC in test [2] turned out to be 32 µg/mL (≈ 35.9 µM); in test [3] (setting [5]) it was 8 µg/mL (≈ 8.97 µM); with Candida albicans (CA) it was 8 µg/mL (≈ 8.97 µM). The MIC in test [2] is 32 µg/mL (≈ 35.9 µM); in test [3], not above 8 µg/mL; in the test on Candida albicans (CA), 8 µg/mL (≈ 8.97 µM).
`CCCCCCCC(=O)OCC(COC(=O)CC[C@@H](C)[C@H]1CC[C@H]2[C@@H]3[C@H](OC(=O)CCN)C[C@@H]4C[C@H](OC(=O)CCN)CC[C@]4(C)[C@H]3C[C@H](OC(=O)CCN)[C@]12C)OC(=O)CCCCCCC` (stereo partly shown) [CSA-4208]: the values for the MBC (in test [2]; in test [3] (setting [5]); with Candida albicans (CA)) were more than 100 µg/mL, 64 µg/mL (≈ 67.5 µM) and 64 µg/mL (≈ 67.5 µM), respectively. In addition, the MIC in test [2] turned out to be 64 µg/mL (≈ 67.5 µM); in test [3] it was 32 µg/mL (≈ 33.7 µM); against Candida albicans (CA), 64 µg/mL (≈ 67.5 µM).
Regarding `CCCCCCCCCC(=O)OCC(COC(=O)CC[C@@H](C)[C@H]1CC[C@H]2[C@@H]3[C@H](OC(=O)CCN)C[C@@H]4C[C@H](OC(=O)CCN)CC[C@]4(C)[C@H]3C[C@H](OC(=O)CCN)[C@]12C)OC(=O)CCCCCCCCC` (stereo partly shown) [CSA-4210], the MBC (in test [2]; in test [3] (setting [5]); in the test on Candida albicans (CA)) was more than 100 µg/mL each time. For the same molecule, the MIC (in test [2]; in test [3]; in the test with Candida albicans (CA)) was more than 100 µg/mL in each case.

As usually defined, the MIC is the smallest concentration in the dilution series that meets the test's criterion for growth inhibition.
